Assay results published in ChEMBL document CHEMBL3046565, “Fungicidal and herbicidal activities of berberine related alkaloids” (2000).

Columns and labels:
Format in all cases: functional
Parastagonospora nodorum [1] = assay: Antifungal activity against Phaeosphaeria nodorum on wheat plant at 25 ppm after 24 hr
Ustilago maydis = assay: Antifungal activity against Ustilago maydis on rice plant at 25 ppm after 24 hr; conditions: Mycosarcoma maydis
Pyricularia oryzae = assay: microbe, parasite or virus in culture; conditions: 24 h
Lemna minor = assay: Herbicidal activity against Lemna minor (common duckweed) at 1 ppm after 9 days relative to control
Phytophthora infestans = assay: microbe, parasite or virus in culture; conditions: in Oryza sativa, 24 h
[2] = tested on: Blumeria graminis f. sp. tritici; assay: Antifungal activity against Blumeria graminis f. sp. tritici on wheat plant assessed as disease control at 100 ppm after 24 hr
Rhizoctonia solani = assay: Antifungal activity against Rhizoctonia solani on rice plant at 25 ppm after 24 hr
Puccinia recondita = assay: Antifungal activity against Puccinia recondita on wheat plant assessed as disease control at 100 ppm after 24 hr
[3] = tested on: Agrostis stolonifera var. palustris; assay: Herbicidal activity against Agrostis stolonifera var. palustris at 1 ppm after 9 days relative to control
Parastagonospora nodorum [4] = assay: Antifungal activity against Phaeosphaeria nodorum on wheat plant assessed as disease control at 100 ppm after 24 hr
Zymoseptoria tritici = assay: Antifungal activity against Zymoseptoria tritici on wheat plant at 25 ppm after 24 hr

COc1cc2c(cc1OC)-c1cc3ccc(OC)c(O)c3c[n+]1CC2.[Cl-] [PALMATRUBINE]
0%: inhibition at 25 ppm (Parastagonospora nodorum [1]) | inhibition at 25 ppm (Ustilago maydis) | inhibition at 25 ppm (Pyricularia oryzae) | Activity (Lemna minor) | inhibition at 25 ppm (Phytophthora infestans) | Activity [2] | inhibition at 25 ppm (Rhizoctonia solani) | Activity (Puccinia recondita) | Activity [3] | Activity (Parastagonospora nodorum [4]) | inhibition at 25 ppm (Zymoseptoria tritici)
